Tests used:
human lung fibroblasts [1] = test: Serum-induced fibrosis in the biomimetic five-layer lung fibrosis model; assay type: cell-based; settings: 2 μM PP2 added to medium 24 hours after assembly and maintained; cells cultured in 2D with 2% serum, then 0.2% in the model
human lung fibroblasts [2] = test: Agent-induced injury (fibrotic response) in the five-layer biomimetic lung model; assay type: cell-based; settings: SHH added exogenously at 500 ng/ml
Protocol: In order to test whether the cells in the gel layer can be fed via the channels, one experiment was conducted with only cells in the gel layer (FIG. 39). In particular, human lung fibroblasts and THP-1 macrophage cells were included in the gel layer. The gel was created by adding collegen to physiological aqueous buffer. Additionally or alternatively, any aqueous buffer (e.g., phosphate buffered saline (PBS) buffer) can be used. The aqueous buffer can be kept at a concentration between 0.1 and 2 mg/ml and kept at 4° C. Human lung fibroblasts (100 K cells/ml) and THP-1 macrophage (50 K cells/ml) cells were added to the gel during the liquid phase. The side of the membranes facing the chamber slab (e.g. 242 and 251) were treated with sulfo-sanpah to promote collagen/ECM anchorage. The lower channel slab, lower membrane, and chamber slab were stacked. The gel was then pipetted into the chamber (e.g., 231). After the upper membrane and upper channel slab was placed on top, the biomimetic organ model was clamped and the biomimetic organ model was placed in the incubator at 37° C. The biomimetic organ model was incubated for five days. For continuous perfusion of culture medium at 200 μL/hr in each channel, FGM-2 can be used as the medium having a reduced serum (e.g., between 0-2% and 2%).
In this study, the development of the organ injury model was examined. […]

Compound	effect on serum-induced fibrosis (FIG. 49) (human lung fibroblasts [1])	induction of fibrotic response (FIG. 48) (human lung fibroblasts [2])
CC(C)(C)n1nc(-c2ccc(Cl)cc2)c2c(N)ncnc21 [PP2]	reduced fibrosis	
sonic hedgehog [SHH]		a fibrotic response can be induced
